Results: a compilation of properties of binary mixtures (doi:10.1016/j.molliq.2014.08.031)

Assay: xn = mol fraction of the nth substance listed
Conditions: 101 kPa

CCCC[n+]1ccn(C)c1.CS(=O)(=O)[O-] + O
Conditions	electrical conductivity [S/m]	viscosity [mPa·s]
343.15 K, x2 = 0.7015	–	6.27
343.15 K, x2 = 0.704	2.68	–
343.15 K, x2 = 0.7495	–	4.95
343.15 K, x2 = 0.785	4.03	–
343.15 K, x2 = 0.796	4.19	–
343.15 K, x2 = 0.8016	–	3.73
343.15 K, x2 = 0.861	7.01	–
343.15 K, x2 = 0.9004	–	1.902
343.15 K, x2 = 0.9254	–	1.45
343.15 K, x2 = 0.929	9.33	–
343.15 K, x2 = 0.9503	–	1.05
343.15 K, x2 = 0.951	9.42	–
343.15 K, x2 = 0.968	8.73	–
343.15 K, x2 = 0.975	–	0.672
344.15 K, x1 = 0.004	2.52	–
344.15 K, x1 = 0.008	4.46	–
344.15 K, x1 = 0.019	7.24	–
344.15 K, x2 = 0.785	4.1	–
344.15 K, x2 = 0.796	4.32	–
344.15 K, x2 = 0.861	7.13	–
344.15 K, x2 = 0.892	8.05	–
344.15 K, x2 = 0.951	9.81	–
345.15 K, x1 = 0.008	4.43	–
345.15 K, x1 = 0.019	7.32	–
345.15 K, x2 = 0.704	2.81	–
345.15 K, x2 = 0.861	7.27	–
345.15 K, x2 = 0.892	8.29	–
345.15 K, x2 = 0.929	9.54	–
346.15 K, x1 = 0.004	2.55	–
346.15 K, x1 = 0.019	7.4	–
346.15 K, x2 = 0.785	4.26	–
346.15 K, x2 = 0.861	7.5	–
346.15 K, x2 = 0.892	8.44	–
346.15 K, x2 = 0.929	9.69	–
346.15 K, x2 = 0.968	9.3	–
347.15 K, x1 = 0.004	2.58	–
347.15 K, x1 = 0.008	4.7	–
347.15 K, x1 = 0.019	7.35	–
347.15 K, x2 = 0.704	2.95	–
347.15 K, x2 = 0.785	4.32	–
347.15 K, x2 = 0.929	9.84	–
347.15 K, x2 = 0.951	10.2	–
347.15 K, x2 = 0.968	9.4	–
348.15 K, x1 = 0.008	4.66	–
348.15 K, x1 = 0.019	7.57	–
348.15 K, x2 = 0.704	3.03	–
348.15 K, x2 = 0.785	4.41	–
348.15 K, x2 = 0.796	4.64	–
348.15 K, x2 = 0.861	7.68	–
348.15 K, x2 = 0.929	9.94	–
348.15 K, x2 = 0.951	10.4	–
348.15 K, x2 = 0.968	9.35	–
349.15 K, x1 = 0.004	2.62	–
349.15 K, x1 = 0.008	4.72	–
349.15 K, x1 = 0.019	7.54	–
349.15 K, x2 = 0.704	3.08	–
349.15 K, x2 = 0.785	4.52	–
349.15 K, x2 = 0.892	8.91	–
349.15 K, x2 = 0.929	10.1	–
349.15 K, x2 = 0.968	9.59	–
350.15 K, x1 = 0.004	2.67	–
350.15 K, x1 = 0.008	4.85	–
350.15 K, x2 = 0.704	3.16	–
350.15 K, x2 = 0.785	4.57	–
350.15 K, x2 = 0.796	4.8	–
350.15 K, x2 = 0.861	7.93	–
350.15 K, x2 = 0.892	9.06	–
350.15 K, x2 = 0.929	10.3	–
350.15 K, x2 = 0.951	10.7	–
350.15 K, x2 = 0.968	9.73	–
351.15 K, x1 = 0.004	2.68	–
351.15 K, x1 = 0.008	4.84	–
351.15 K, x1 = 0.019	7.88	–
351.15 K, x2 = 0.704	3.27	–
351.15 K, x2 = 0.785	4.68	–
351.15 K, x2 = 0.796	4.91	–
351.15 K, x2 = 0.861	8.29	–
351.15 K, x2 = 0.892	9.2	–
351.15 K, x2 = 0.929	10.5	–
351.15 K, x2 = 0.951	10.8	–
351.15 K, x2 = 0.968	9.91	–
352.15 K, x1 = 0.004	2.71	–
352.15 K, x1 = 0.008	4.89	–
352.15 K, x2 = 0.704	3.37	–
352.15 K, x2 = 0.785	4.8	–
352.15 K, x2 = 0.796	4.99	–
352.15 K, x2 = 0.861	8.21	–
352.15 K, x2 = 0.892	9.33	–
352.15 K, x2 = 0.929	10.6	–
352.15 K, x2 = 0.968	9.86	–
353.15 K, x1 = 0.008	4.92	–
353.15 K, x1 = 0.019	8.06	–
353.15 K, x2 = 0.892	9.44	–
353.15 K, x2 = 0.929	10.7	–
353.15 K, x2 = 0.968	10.1	–
354.15 K, x1 = 0.004	2.79	–
354.15 K, x1 = 0.008	4.98	–
354.15 K, x1 = 0.019	8.03	–
354.15 K, x2 = 0.704	3.55	–
354.15 K, x2 = 0.785	4.98	–
354.15 K, x2 = 0.796	5.01	–
354.15 K, x2 = 0.892	9.6	–
354.15 K, x2 = 0.929	10.8	–
354.15 K, x2 = 0.951	11.1	–
354.15 K, x2 = 0.968	10.2	–
355.15 K, x1 = 0.008	5.04	–
355.15 K, x1 = 0.019	8.25	–
355.15 K, x2 = 0.785	5.05	–
355.15 K, x2 = 0.796	5.26	–
355.15 K, x2 = 0.861	8.55	–
355.15 K, x2 = 0.892	9.73	–
355.15 K, x2 = 0.929	11	–
355.15 K, x2 = 0.951	11.1	–
356.15 K, x1 = 0.008	5.09	–
356.15 K, x1 = 0.019	8.34	–
356.15 K, x2 = 0.704	3.73	–
356.15 K, x2 = 0.785	5.15	–
356.15 K, x2 = 0.796	5.34	–
356.15 K, x2 = 0.861	8.43	–
356.15 K, x2 = 0.892	9.89	–
356.15 K, x2 = 0.929	11.1	–
356.15 K, x2 = 0.951	11.2	–
356.15 K, x2 = 0.968	10.4	–
357.15 K, x1 = 0.008	5.13	–
357.15 K, x1 = 0.019	8.43	–
357.15 K, x2 = 0.704	3.83	–
357.15 K, x2 = 0.785	5.23	–
357.15 K, x2 = 0.796	5.41	–
357.15 K, x2 = 0.861	8.6	–
357.15 K, x2 = 0.892	10	–
357.15 K, x2 = 0.968	10.6	–
358.15 K, x1 = 0.004	2.9	–
358.15 K, x1 = 0.008	5.18	–
358.15 K, x1 = 0.019	8.47	–
358.15 K, x2 = 0.704	3.88	–
358.15 K, x2 = 0.785	5.22	–
358.15 K, x2 = 0.796	5.47	–
358.15 K, x2 = 0.861	8.73	–
358.15 K, x2 = 0.929	11.3	–
358.15 K, x2 = 0.951	11.5	–
358.15 K, x2 = 0.968	10.6	–
